Results as given in PubChem BioAssay (NCI).
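Growth conditions: 96-well plates. Treatment: test compound, 48 hours, 5 concentrations. Analysis: linear interpolation between bracketing concentrations; unreached endpoints set to highest concentration. TGI marks complete inhibition of growth.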

Assays:
Test in all cases: NCI tumour cell line growth inhibition, 48 h
SF-295 CNS = tested on: SF-295 CNS
UACC-62 melanoma = tested on: UACC-62 melanoma
K-562 leukemia = tested on: K-562 leukemia
CAKI-1 renal = tested on: CAKI-1 renal
COLO 205 colon = tested on: COLO 205 colon
HOP-92 NSCLC = tested on: HOP-92 NSCLC
OVCAR-3 ovarian = tested on: OVCAR-3 ovarian
SK-MEL-5 melanoma = tested on: SK-MEL-5 melanoma
MOLT-4 leukemia = tested on: MOLT-4 leukemia
KM12 colon = tested on: KM12 colon
SK-MEL-2 melanoma = tested on: SK-MEL-2 melanoma
SF-539 CNS = tested on: SF-539 CNS
SNB-19 CNS = tested on: SNB-19 CNS
KM20L2 colon = tested on: KM20L2 colon
HCT-116 colon = tested on: HCT-116 colon
TK-10 renal = tested on: TK-10 renal
HOP-62 NSCLC = tested on: HOP-62 NSCLC
LOX IMVI melanoma = tested on: LOX IMVI melanoma
DMS 114 small cell lung = tested on: DMS 114 small cell lung
LXFL 529 NSCLC = tested on: LXFL 529 NSCLC
A498 renal = tested on: A498 renal
SF-268 CNS = tested on: SF-268 CNS
OVCAR-8 ovarian = tested on: OVCAR-8 ovarian
OVCAR-5 ovarian = tested on: OVCAR-5 ovarian
UO-31 renal = tested on: UO-31 renal
RXF-631 renal = tested on: RXF-631 renal
U251 CNS = tested on: U251 CNS
SNB-75 CNS = tested on: SNB-75 CNS
OVCAR-4 ovarian = tested on: OVCAR-4 ovarian
HOP-18 NSCLC = tested on: HOP-18 NSCLC
DMS 273 small cell lung = tested on: DMS 273 small cell lung
A549 NSCLC = tested on: A549 NSCLC
UACC-257 melanoma = tested on: UACC-257 melanoma
NCI-H460 lung = tested on: NCI-H460 lung
M19-MEL melanoma = tested on: M19-MEL melanoma
SN12C renal = tested on: SN12C renal
HL-60(TB) leukemia = tested on: HL-60(TB) leukemia
EKVX NSCLC = tested on: EKVX NSCLC
HT29 colon = tested on: HT29 colon
CCRF-CEM leukemia = tested on: CCRF-CEM leukemia
RPMI-8226 leukemia = tested on: RPMI-8226 leukemia
HCT-15 colon = tested on: HCT-15 colon
MALME-3M melanoma = tested on: MALME-3M melanoma
DLD-1 colon = tested on: DLD-1 colon
HCC-2998 colon = tested on: HCC-2998 colon
RXF 393 renal = tested on: RXF 393 renal
SNB-78 CNS = tested on: SNB-78 CNS
SW-620 colon = tested on: SW-620 colon
786-0 renal = tested on: 786-0 renal
NCI-H23 lung = tested on: NCI-H23 lung
ACHN renal = tested on: ACHN renal
SK-OV-3 ovarian = tested on: SK-OV-3 ovarian
M14 melanoma = tested on: M14 melanoma
IGROV1 ovarian = tested on: IGROV1 ovarian
P388 leukemia = tested on: P388 leukemia
XF 498 CNS = tested on: XF 498 CNS
SN12K1 renal = tested on: SN12K1 renal
HS 578T breast = tested on: HS 578T breast
BT-549 breast = tested on: BT-549 breast
SR leukemia = tested on: SR leukemia
NCI-H226 lung = tested on: NCI-H226 lung
NCI/ADR-RES ovarian = tested on: NCI/ADR-RES ovarian
T-47D breast = tested on: T-47D breast
P388/ADR leukemia = tested on: P388/ADR leukemia
MDA-MB-435 = tested on: MDA-MB-435
MDA-N = tested on: MDA-N
MDA-MB-231 breast = tested on: MDA-MB-231 breast
SK-MEL-28 melanoma = tested on: SK-MEL-28 melanoma
DU-145 prostate = tested on: DU-145 prostate
MCF7 breast = tested on: MCF7 breast
NCI-H522 lung = tested on: NCI-H522 lung
PC-3 prostate = tested on: PC-3 prostate

Structure (SMILES): Cc1ccc(S(=O)(=O)N/N=C/C(C)C)cc1
- TGI (SF-295 CNS): > 100 µM
- TGI (UACC-62 melanoma): > 100 µM
- TGI (K-562 leukemia): > 100 µM
- TGI (CAKI-1 renal): > 100 µM
- TGI (COLO 205 colon): > 100 µM
- TGI (HOP-92 NSCLC): > 100 µM
- TGI (OVCAR-3 ovarian): > 100 µM
- TGI (SK-MEL-5 melanoma): > 100 µM
- TGI (MOLT-4 leukemia): > 100 µM
- TGI (KM12 colon): > 100 µM
- TGI (SK-MEL-2 melanoma): > 100 µM
- TGI (SF-539 CNS): > 100 µM
- TGI (SNB-19 CNS): > 100 µM
- TGI (KM20L2 colon): > 100 µM
- TGI (HCT-116 colon): > 100 µM
- TGI (TK-10 renal): > 100 µM
- TGI (HOP-62 NSCLC): > 100 µM
- TGI (LOX IMVI melanoma): > 100 µM
- TGI (DMS 114 small cell lung): > 100 µM
- TGI (LXFL 529 NSCLC): > 100 µM
- TGI (A498 renal): > 100 µM
- TGI (SF-268 CNS): > 100 µM
- TGI (OVCAR-8 ovarian): > 100 µM
- TGI (OVCAR-5 ovarian): > 100 µM
- TGI (UO-31 renal): > 100 µM
- TGI (RXF-631 renal): > 100 µM
- TGI (U251 CNS): > 100 µM
- TGI (SNB-75 CNS): > 100 µM
- TGI (OVCAR-4 ovarian): > 100 µM
- TGI (HOP-18 NSCLC): > 100 µM
- TGI (DMS 273 small cell lung): > 100 µM
- TGI (A549 NSCLC): > 100 µM
- TGI (UACC-257 melanoma): > 100 µM
- TGI (NCI-H460 lung): > 100 µM
- TGI (M19-MEL melanoma): > 100 µM
- TGI (SN12C renal): > 100 µM
- TGI (HL-60(TB) leukemia): > 100 µM
- TGI (EKVX NSCLC): > 100 µM
- TGI (HT29 colon): > 100 µM
- TGI (CCRF-CEM leukemia): > 100 µM
- TGI (RPMI-8226 leukemia): > 100 µM
- TGI (HCT-15 colon): > 100 µM
- TGI (MALME-3M melanoma): > 100 µM
- TGI (DLD-1 colon): > 100 µM
- TGI (HCC-2998 colon): > 100 µM
- TGI (RXF 393 renal): > 100 µM
- TGI (SNB-78 CNS): > 100 µM
- TGI (SW-620 colon): > 100 µM
- TGI (786-0 renal): > 100 µM
- TGI (NCI-H23 lung): > 100 µM
- TGI (ACHN renal): > 100 µM
- TGI (SK-OV-3 ovarian): > 100 µM
- TGI (M14 melanoma): > 100 µM
- TGI (IGROV1 ovarian): > 100 µM

Structure (SMILES): O=C(CCCN1CCC(C(O)c2ccc(F)cc2)CC1)c1ccc(F)cc1 (stereo not given)
- TGI (P388 leukemia): 119 µM
- TGI (XF 498 CNS): 15.1 µM
- TGI (SN12K1 renal): 108 µM
- TGI (SF-295 CNS): 118 µM
- TGI (UACC-62 melanoma): 114 µM
- TGI (HS 578T breast): 116 µM
- TGI (K-562 leukemia): 154 µM
- TGI (CAKI-1 renal): 114 µM
- TGI (BT-549 breast): 93 µM
- TGI (SR leukemia): 201 µM
- TGI (NCI-H226 lung): 111 µM
- TGI (COLO 205 colon): 110 µM
- TGI (NCI/ADR-RES ovarian): 149 µM
- TGI (HOP-92 NSCLC): 60.4 µM
- TGI (OVCAR-3 ovarian): 116 µM
- TGI (SK-MEL-5 melanoma): 99.3 µM
- TGI (MOLT-4 leukemia): 142 µM
- TGI (KM12 colon): 116 µM
- TGI (T-47D breast): 137 µM
- TGI (P388/ADR leukemia): 141 µM
- TGI (SK-MEL-2 melanoma): 113 µM
- TGI (SF-539 CNS): 113 µM
- TGI (SNB-19 CNS): 114 µM
- TGI (MDA-MB-435): 109 µM
- TGI (KM20L2 colon): 96 µM
- TGI (HCT-116 colon): 116 µM
- TGI (TK-10 renal): 86.8 µM
- TGI (HOP-62 NSCLC): 125 µM
- TGI (LOX IMVI melanoma): 103 µM
- TGI (MDA-N): 116 µM
- TGI (DMS 114 small cell lung): 108 µM
- TGI (MDA-MB-231 breast): 89.7 µM
- TGI (A498 renal): 94.4 µM
- TGI (SF-268 CNS): 122 µM
- TGI (SK-MEL-28 melanoma): 118 µM
- TGI (DU-145 prostate): 118 µM
- TGI (OVCAR-8 ovarian): 125 µM
- TGI (OVCAR-5 ovarian): 116 µM
- TGI (MCF7 breast): 122 µM
- TGI (UO-31 renal): 79.3 µM
- TGI (NCI-H522 lung): 139 µM
- TGI (U251 CNS): 106 µM
- TGI (SNB-75 CNS): 98.5 µM
- TGI (OVCAR-4 ovarian): 134 µM
- TGI (HOP-18 NSCLC): 142 µM
- TGI (DMS 273 small cell lung): 118 µM
- TGI (A549 NSCLC): 123 µM
- TGI (UACC-257 melanoma): 121 µM
- TGI (NCI-H460 lung): 115 µM
- TGI (M19-MEL melanoma): 115 µM
- TGI (SN12C renal): 141 µM
- TGI (HL-60(TB) leukemia): 120 µM
- TGI (EKVX NSCLC): 136 µM
- TGI (HT29 colon): 92.7 µM
- TGI (CCRF-CEM leukemia): 228 µM
- TGI (RPMI-8226 leukemia): 168 µM
- TGI (HCT-15 colon): 123 µM
- TGI (MALME-3M melanoma): 113 µM
- TGI (PC-3 prostate): 99.6 µM
- TGI (DLD-1 colon): 120 µM
- TGI (HCC-2998 colon): 93.4 µM
- TGI (RXF 393 renal): 98.3 µM
- TGI (SNB-78 CNS): 123 µM
- TGI (SW-620 colon): 123 µM
- TGI (786-0 renal): 96.6 µM
- TGI (NCI-H23 lung): 134 µM
- TGI (ACHN renal): 99.9 µM
- TGI (SK-OV-3 ovarian): 138 µM
- TGI (M14 melanoma): 109 µM
- TGI (IGROV1 ovarian): 130 µM

Structure (SMILES): O=c1[nH]cnc2c(COCCO)c[nH]c12
- TGI (XF 498 CNS): > 100 µM
- TGI (SF-295 CNS): > 100 µM
- TGI (UACC-62 melanoma): > 100 µM
- TGI (K-562 leukemia): > 100 µM
- TGI (CAKI-1 renal): > 100 µM
- TGI (SR leukemia): > 100 µM
- TGI (NCI-H226 lung): > 100 µM
- TGI (COLO 205 colon): > 100 µM
- TGI (HOP-92 NSCLC): > 100 µM
- TGI (OVCAR-3 ovarian): > 100 µM
- TGI (SK-MEL-5 melanoma): > 100 µM
- TGI (MOLT-4 leukemia): > 100 µM
- TGI (KM12 colon): > 100 µM
- TGI (SK-MEL-2 melanoma): > 100 µM
- TGI (SF-539 CNS): > 100 µM
- TGI (SNB-19 CNS): > 100 µM
- TGI (KM20L2 colon): > 100 µM
- TGI (TK-10 renal): > 100 µM
- TGI (HOP-62 NSCLC): > 100 µM
- TGI (LOX IMVI melanoma): > 100 µM
- TGI (DMS 114 small cell lung): > 100 µM
- TGI (LXFL 529 NSCLC): > 100 µM
- TGI (A498 renal): > 100 µM
- TGI (SF-268 CNS): > 100 µM
- TGI (SK-MEL-28 melanoma): > 100 µM
- TGI (OVCAR-8 ovarian): > 100 µM
- TGI (OVCAR-5 ovarian): > 100 µM
- TGI (UO-31 renal): > 100 µM
- TGI (NCI-H522 lung): > 100 µM
- TGI (RXF-631 renal): > 100 µM
- TGI (U251 CNS): > 100 µM
- TGI (SNB-75 CNS): > 100 µM
- TGI (OVCAR-4 ovarian): > 100 µM
- TGI (HOP-18 NSCLC): > 100 µM
- TGI (DMS 273 small cell lung): > 100 µM
- TGI (UACC-257 melanoma): > 100 µM
- TGI (NCI-H460 lung): > 100 µM
- TGI (M19-MEL melanoma): > 100 µM
- TGI (SN12C renal): > 100 µM
- TGI (HL-60(TB) leukemia): > 100 µM
- TGI (EKVX NSCLC): > 100 µM
- TGI (HT29 colon): > 100 µM
- TGI (CCRF-CEM leukemia): > 100 µM
- TGI (RPMI-8226 leukemia): > 100 µM
- TGI (HCT-15 colon): > 100 µM
- TGI (MALME-3M melanoma): > 100 µM
- TGI (DLD-1 colon): > 100 µM
- TGI (RXF 393 renal): > 100 µM
- TGI (SNB-78 CNS): > 100 µM
- TGI (SW-620 colon): > 100 µM
- TGI (786-0 renal): > 100 µM
- TGI (NCI-H23 lung): > 100 µM
- TGI (ACHN renal): > 100 µM
- TGI (SK-OV-3 ovarian): > 100 µM
- TGI (M14 melanoma): > 100 µM
- TGI (IGROV1 ovarian): > 100 µM
